Reference: patent publication US9062041B2 (Bayer Intellectual Property GmbH, priority 2011, dated 2015)

Assays:
Assay type in all cases: cell-based
[1] = target: EP2 subtype of the human PGE2 receptor (Homo sapiens, UniProt P43116); test: cAMP antagonism test on the human EP2 receptor (HTRF cAMP detection); details: hEP2 receptor, read-out: Antagonism hEP2 IC50
Source text: 1. Detection of Antagonism to the Human Prostaglandin E2 (Subtype EP2) Receptor Signal
(§1) The binding of PGE2 to the EP2 subtype of the human PGE2 receptor induces the activation of membrane-located adenylate cyclases and leads to the formation of cAMP. In the presence of the phosphodiesterase inhibitor IBMX, the cAMP accumulated owing to this stimulation and released by cell lysis is used in a competitive detection method. In this test, the cAMP present in the lysate competes with a fluorescence-labelled cAMP (cAMP-d2) for binding to an Eu cryptate-labelled anti-cAMP antibody.
(§2) In the absence of cellular cAMP, a maximal signal is produced, which is attributable to the binding of this cAMP-d2 molecule to the antibody. After excitation of the […] at 337 nm, there is a fluorescence resonance energy transfer (FRET) to the Eu cryptate molecules of the anti-cAMP antibody (labelled therewith), followed by a long-lasting emission signal at 665 nm (and at […]). Both signals are measured in a suitable measurement instrument with a time delay, i.e. after decay of the background fluorescence. Any increase in the low FRET signal caused by prostaglandin E2 administration (measured as well ratio change=emission665 nm/emission620 nm*10000) indicates the action of antagonists.
1.2.1. Test for Antagonism (Data Per Well of a 384-Well Plate):
(§3) To a test plate with the substance solutions already added (0.05 μl; 100% DMSO, concentration range from 0.8 nM-16.5 μM) were added 4 μl of a cAMP-d2/cell suspension (625000 cells/ml). After a 20-minute preincubation at room temperature (RT), 2 μl of a 3×PGE2 solution (1.5 nM, in PBS-IBMX) were added and incubated in the presence of the agonist for a further 60 mins at RT (volume: ˜6 μl). Next the reaction was stopped by addition of 2 μl of lysis buffer and incubated for a further 20 mins at RT before the actual measurement (volume: ˜8 μl).

[2] = target: T1, human PGD receptor (Homo sapiens, UniProt Q13258); test: cAMP antagonism test on the human prostaglandin D receptor (HTRF cAMP detection); details: selectivity towards hDP, IC50 measured by cAMP antagonism test
T1 sequence (Q13258 1-359): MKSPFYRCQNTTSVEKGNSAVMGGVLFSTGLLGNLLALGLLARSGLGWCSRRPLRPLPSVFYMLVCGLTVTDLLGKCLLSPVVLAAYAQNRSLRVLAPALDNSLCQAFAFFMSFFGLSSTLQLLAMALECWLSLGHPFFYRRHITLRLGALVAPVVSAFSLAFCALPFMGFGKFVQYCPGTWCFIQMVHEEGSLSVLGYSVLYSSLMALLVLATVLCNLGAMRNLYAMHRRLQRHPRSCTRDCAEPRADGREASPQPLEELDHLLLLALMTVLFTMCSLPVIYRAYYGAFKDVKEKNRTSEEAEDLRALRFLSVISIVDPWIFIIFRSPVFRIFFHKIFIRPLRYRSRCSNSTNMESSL
Source text: 3. Detection of Antagonism to the Human Prostaglandin D Receptor Signal
as §1, with “of prostaglandin D2” for “of PGE2”, “the” for “the EP2 subtype of the”, “human PGD” for “human PGE2”
as §2
3.2.1. Test for Antagonism (Data Per Well of a 384-Well Plate):
as §3, with “3×PGD2” for “3×PGE2”, “(6” for “(1.5”, “30” for “60”

[3] = target: EP4 subtype of the human PGE2 receptor (Homo sapiens, UniProt P35408); test: cAMP antagonism test on the human EP4 receptor (HTRF cAMP detection); details: selectivity towards hEP4, IC50 measured by cAMP antagonism test
EP4 subtype of the human PGE2 receptor, sequence (P35408 whole entry): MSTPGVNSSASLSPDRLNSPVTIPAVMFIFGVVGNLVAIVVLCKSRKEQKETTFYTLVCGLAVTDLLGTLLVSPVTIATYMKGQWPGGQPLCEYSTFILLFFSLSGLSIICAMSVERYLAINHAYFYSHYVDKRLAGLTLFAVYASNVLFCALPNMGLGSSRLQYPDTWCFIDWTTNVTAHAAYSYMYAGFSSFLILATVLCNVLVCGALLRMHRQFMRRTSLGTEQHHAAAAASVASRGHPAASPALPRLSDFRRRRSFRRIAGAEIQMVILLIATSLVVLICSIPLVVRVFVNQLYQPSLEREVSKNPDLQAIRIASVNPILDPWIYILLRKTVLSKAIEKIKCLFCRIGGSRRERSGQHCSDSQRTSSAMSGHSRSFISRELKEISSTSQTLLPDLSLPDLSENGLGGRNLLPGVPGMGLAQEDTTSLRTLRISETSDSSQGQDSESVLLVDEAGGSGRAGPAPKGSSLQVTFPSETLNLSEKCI
Source text: 2. Detection of Antagonism to the Human Prostaglandin E2 (Subtype EP4) Receptor Signal
as §1, with “EP4” for “EP2”
as §2, with “cAMP” for “cAMP,”
2.2.1. Test for Antagonism (Data Per Well of a 384-Well Plate):
as §3, with “(312500” for “(625000”, “(0.3” for “(1.5”

EP2 subtype of the human PGE2 receptor, sequence (P43116 whole entry): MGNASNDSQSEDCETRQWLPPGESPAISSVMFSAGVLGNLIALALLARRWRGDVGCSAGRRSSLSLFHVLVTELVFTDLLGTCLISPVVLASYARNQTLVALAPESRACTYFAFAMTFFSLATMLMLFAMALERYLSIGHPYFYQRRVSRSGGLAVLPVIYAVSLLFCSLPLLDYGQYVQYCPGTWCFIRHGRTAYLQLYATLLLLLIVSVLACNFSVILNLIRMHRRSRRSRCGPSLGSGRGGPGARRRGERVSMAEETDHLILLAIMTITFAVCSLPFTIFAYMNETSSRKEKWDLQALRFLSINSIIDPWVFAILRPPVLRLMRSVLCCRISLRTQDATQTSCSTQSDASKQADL

Row | IC50 [1] [nM] | Selectivity hEP2/hDP [2] | Selectivity hEP2/hEP4 [3] | Compound
1 | 4.25 | xxx (xxx > 100) | xxx (xxx > 100) | COCCNC(=O)c1ccc2nn(CC3CN(C(=O)c4cc5cc(F)ccc5n4C)C3)cc2c1C [Example 170, 2-({1-[(5-fluoro-1-methyl-1H-indol-2-yl)carbonyl]azetidin-3-yl}methyl)-N-(2-methoxyethyl)-4-methyl-2H-indazol-5-carboxamide]
2 | 8.17 | xxx (xxx > 100) |  | COCCNC(=O)c1ccc2nn(CC3CN(C(=O)c4ccc(SC(F)(F)F)cc4)C3)cc2c1C [Example 118, N-(2-methoxyethyl)-4-methyl-2-[(1-{4-[(trifluoromethyl)sulphanyl]benzoyl}azetidin-3-yl)methyl]-2H-indazol-5-carboxamide]
3 | 107 |  | xxx (xxx > 100) | COCCNC(=O)c1ccc2nn(CC3CN(C(=O)c4ccc(Cl)c(C(F)(F)F)c4)C3)cc2c1OC [Example 256, 2-({1-[4-chloro-3-(trifluoromethyl)benzoyl]azetidin-3-yl}methyl)-4-methoxy-N-(2-methoxyethyl)-2H-indazol-5-carboxamide]
4 | 13.2 | xxx (xxx > 100) |  | COCCNC(=O)c1ccc2nn(CC3CN(C(=O)c4ccc(OC(F)(F)F)cc4)C3)cc2c1C [Example 119, N-(2-methoxyethyl)-4-methyl-2-({1-[4-(trifluoromethoxy)benzoyl]azetidin-3-yl}methyl)-2H-indazol-5-carboxamide]
5 | 15.5 | xxx (xxx > 100) |  | COCCNC(=O)c1ccc2nn(CC3CN(C(=O)c4ccc(C(F)(F)F)cc4F)C3)cc2c1C [Example 120, 2-({1-[2-fluoro-4-(trifluoromethyl)benzoyl]azetidin-3-yl}methyl)-N-(2-methoxy-ethyl)-4-methyl-2H-indazol-5-carboxamide]

The next lines start with the compound.

Row | Compound | IC50 [1] [nM] | Selectivity hEP2/hDP [2] | Selectivity hEP2/hEP4 [3]
6 | Cc1c(C(=O)NCCN2CCOCC2)ccc2nn(CC3CN(C(=O)c4ccc(Cl)cc4)C3)cc12 [Example 128, 2-{[1-(4-chlorobenzoyl)azetidin-3-yl]methyl}-4-methyl-N-(2-morpholinoethyl)-2H-indazol-5-carboxamide] | 471 | xx (xx: 10-100) | xx (xx: 10-100)
7 | COCCNC(=O)c1ccc2nn(CC3CCN(C(=O)c4ccc(C(F)F)cc4)CC3)cc2c1C [Example 32, 2-({1-[4-(difluoro-methyl)benzoyl]-piperidin-4-yl}-methyl)-N-(2-methoxyethyl)-4-methyl-2H-indazol-5-carboxamide] | 10.4 | xxx (xxx > 100) | xxx (xxx > 100)
8 | COCCNC(=O)c1ccc2nn(CC3CN(C(=O)c4ccc(OC(F)(F)F)cc4)C3)cc2c1OC [Example 254, 4-methoxy-N-(2-methoxyethyl)-2-({1-[4-(trifluoromethoxy)benzoyl]azetidin-3-yl}methyl)-2H-indazol-5-carboxamide] | 55.2 | xxx (xxx > 100) | xxx (xxx > 100)
9 | COCCNC(=O)c1ccc2nn(CC3CCN(C(=O)c4ccc(Oc5ccc(F)cc5)cc4)CC3)cc2c1OC(F)F [Example 226, 4-(difluoromethoxy)-2-({1-[4-(4-fluorophenoxy)benzoyl]piperidin-4-yl}methyl)-N-(2-methoxyethyl)-2H-indazol-5-carboxamide] | 11.9 | xxx (xxx > 100) | xxx (xxx > 100)
10 | Cc1cc2nn(CC3CN(C(=O)c4ccc(OC(F)(F)F)cc4)C3)cc2cc1C(=O)NCCN1CCOCC1 [Example 279, 6-methyl-N-(2-morpholinoethyl)-2-({1-[4-(trifluoromethoxy)benzoyl]azetidin-3-yl}methyl)-2H-indazol-5-carboxamide] | 57.4 | xxx (xxx > 100) | xxx (xxx > 100)
11 | COCCNC(=O)c1ccc2nn(CC3CCN(C(=O)c4ccc(N5CCCC5)cc4F)CC3)cc2c1C [Example 41, 2-({1-[2-fluoro-4-(pyrrolidin-1-yl)-benzoyl]piperidin-4-yl}methyl)-N-(2-methoxyethyl)-4-methyl-2H-indazol-5-carboxamide] | 5.62 | xxx (xxx > 100) | xxx (xxx > 100)
12 | COc1c(C(=O)NCCSC(F)(F)F)ccc2nn(CC3CCN(C(=O)c4ccc(Cl)cc4)CC3)cc12 [Example 265, 2-{[1-(4-chlorobenzoyl)piperidin-4-yl]methyl}-4-methoxy-N-{2-[(trifluoromethyl)sulphanyl]ethyl}-2H-indazol-5-carboxamide] | 31.5 | xxx (xxx > 100) | xxx (xxx > 100)
13 | COCCNC(=O)c1ccc2nn(CC3CCN(C(=O)c4ccc(C(C)(C)C)cc4)CC3)cc2c1C [Example 333, 2-{[1-(4-tert-butylbenzoyl)piperidin-4-yl]methyl}-N-(2-methoxyethyl)-4-methyl-2H-indazol-5-carboxamide] | 6.42 | xxx (xxx > 100) | xxx (xxx > 100)
14 | Cc1c(C(=O)NCCN2CCC(F)(F)C2)ccc2nn(CC3CCN(C(=O)c4ccc(Cl)cc4)CC3)cc12 [Example 69, 2-{[1-(4-chlorobenzoyl)piperidin-4-yl]methyl}-N-[2-(3,3-difluoropyrrolidin-1-yl)ethyl]-4-methyl-2H-indazol-5-carboxamide] | 29 | xxx (xxx > 100) | 
15 | Cc1c(C(=O)NCCN2CCC(F)(F)C2)ccc2nn(CC3CCN(C(=O)c4ccc(SC(F)(F)F)cc4)CC3)cc12 [Example 70, N-[2-(3,3-difluoropyrrolidin-1-yl)ethyl]-4-methyl-2-[(1-{4-[(trifluoromethyl)sulphanyl]benzoyl}piperidin-4-yl)methyl]-2H-indazol-5-carboxamide] | 49 | xxx (xxx > 100) | 
